For 76 molecules, cytotoxicity results are on record in ChEMBL document CHEMBL3507680, “University of Dundee, Gates Library screen for HepG2 cell viability”.

A short description of the data set: Human HepG2 cell viability assay in 384 well format. It counts as toxicity, cell-based. Further details: dose 125 nL, time 70.5 hour; cytotoxicity at 70.5 h: concentration not given beside the values. The conditions noted are these: HepG2 cells, read-out: Inhibition.

As to `COC(=O)C1CN(CC(=O)Nc2cc(F)ccc2F)c2ccccc21` (stereo unspecified), the cytotoxicity at 70.5 h was -7.21%.

In the case of `COC(=O)C1CN(CC(=O)Nc2ccccc2Cl)c2ccccc21` (stereo unspecified), the cytotoxicity at 70.5 h was -5.02%.

Consider `O=C(NCc1cccc(N2CC=CC2)c1)NCC(F)(F)F`, for which the cytotoxicity at 70.5 h is -2.26%. Then `O=C(NCc1cccc(N2CC=CC2)c1)NC1CC1`, with -2.22%; and `CC(C)(C)OC(=O)NCC1CCN(C(=O)c2ccc(F)cc2F)C1` (stereo unspecified), with -4.74%. With `CC(C)(C)OC(=O)NCC1CCN(C(=O)c2ccccc2O)C1` (stereo unspecified), the cytotoxicity at 70.5 h is -0.832%. Then `Cc1cnc(CNC(=O)NCCOc2ncccc2Cl)s1`, with -3.34%; and `CC(C)c1cc(CNC(=O)NCc2cccc(N3CC=CC3)c2)on1`, with -3.2%; and `Cc1cnc(CCNC(=O)NCCOc2ncccc2Cl)s1`, with -2.69%. Then `Cc1cnc(NC(=O)NCCOc2ncccc2Cl)s1`, with -4.99%. Turning to `CN(C)c1ncc(NC(=O)N2CCC(CN3CCCC3)C2)cn1` (stereo unspecified), the cytotoxicity at 70.5 h came out at 0.1%. As for `CCC(C)(NCC(=O)NC(=O)NC)c1nccs1` (stereo unspecified), the figure is -4.72%.

On to `Cc1ccccc1-n1cnnc1SCCOCC1CCCO1` (stereo unspecified), for which the cytotoxicity at 70.5 h is -5%.

Regarding `COC(=O)N1CCC(Nc2cccc(F)c2C(C)=O)CC1`, the cytotoxicity at 70.5 h is -10.1%. `CC(C)(C)S(=O)(=O)CCNC1CSCCc2ccccc21` (stereo unspecified): the cytotoxicity at 70.5 h was found to be 27.7%.

Consider `CCN(CC(F)(F)F)C(=O)C1CCCN(Cc2cscn2)C1` (stereo unspecified), for which the cytotoxicity at 70.5 h was 26.1%. Turning to `Oc1ccc2oc3c(c2c1CN1CCOCC1)CCCC3`, the cytotoxicity at 70.5 h was -8.06%. As for `CNC(=O)c1cccc(NC(=O)NCc2ccccc2)c1C`, the figure is -10.1%. Then `CS(=O)(=O)N1CCN(Cc2c(O)ccc3oc4c(c23)CCCC4)CC1`, with -10.3%.

For the molecule `Cc1nn(C)c(N2CCOCC2)c1CNCC1CCN(C2CC2)C1` (stereo unspecified), the cytotoxicity at 70.5 h amounted to 15.8%. As for `CC(=O)NCC1CN(c2ccc3c(Cl)ccnc3c2F)CCO1` (stereo unspecified), the figure is -7.29%; as for `COc1ccc2cccc(CC(=O)NCCc3n[nH]c(=O)[nH]3)c2c1`, -8.41%. On to `COc1ccc2cccc(CC(=O)NCCCc3n[nH]c(C)n3)c2c1`, for which the cytotoxicity at 70.5 h was 4.93%. Then `O=S(=O)(NCCN1CC=CC1)c1cncc(Cl)c1`, with -0.531%. Then `O[C@@H]1CCN(c2ccc3c(Cl)ccnc3c2F)C1`, with -8.44%; and `Cn1ccnc1CCNC(=O)NCCC1CCCCO1` (stereo unspecified), with -2.69%. Then `CC(C)c1nnc(NCc2ccsc2)o1`, with 3.33%; and `Cn1ccnc1SCC(=O)NCCC1CCCO1` (stereo unspecified), with 31.2%. Regarding `CCOc1cc(C)nc(N2CCN(C(C)c3nc(C)no3)CC2)n1` (stereo unspecified), the cytotoxicity at 70.5 h was -1.64%. Consider `COCC1CN(c2ccc3c(Cl)ccnc3c2F)CCO1` (stereo unspecified), for which the cytotoxicity at 70.5 h is 20.2%. Then `CCc1nc(CNC2CCCc3c2cnn3CC)cs1` (stereo unspecified), with 6.14%. With `CS(=O)(=O)NCCCNc1ccc(C(F)(F)F)cc1C#N`, the cytotoxicity at 70.5 h was -3.55%.

On to `Cc1ncc2c(n1)CCN(C(C(N)=O)c1ccccc1)C2` (stereo unspecified), for which the cytotoxicity at 70.5 h is -2.66%. As to `CCOC(=O)c1nc(CN2CCN(C(=O)NC3CCCCC3)CC2)cs1`, the cytotoxicity at 70.5 h was -7.73%. Then `O=C(c1c[nH]c2ncccc12)N(Cc1ccco1)C1CCCC1`, with -3.94%; and `CCc1ncc2c(n1)CN(C(C(N)=O)c1ccccc1)CC2` (stereo unspecified), with -3.45%. As for `N#Cc1cnc2ccccc2c1N1CCNCC1`, the figure is -1.59%.

Consider `CC(C)Cn1cnnc1C1CCCN1C(=O)OC(C)(C)C` (stereo unspecified), for which the cytotoxicity at 70.5 h is -0.156%.

Turning to `CCN(C(=O)CNc1cc(C)c(F)cc1C(N)=O)C1CC1`, the cytotoxicity at 70.5 h amounted to 0.591%. Then `Cc1cc(NCC(=O)N(C)C(C)c2cccs2)c(C(N)=O)cc1F` (stereo unspecified), with 1.44%; and `CCNC(=O)NC1CCCN(c2ccc(C)cc2)C1=O` (stereo unspecified), with 0.44%. Then `Cc1cc(NCC(=O)N(C)Cc2cccs2)c(C(N)=O)cc1F`, with 0.052%; and `O=C(NC(CN1CCCC1)c1ccccc1)c1c(O)cc(F)cc1F` (stereo unspecified), with -1.92%; and `O=C1CC(CNc2cncc(Br)c2)c2ccccc2N1` (stereo unspecified), with 3.03%. As for `NC(=O)CN(C(=O)c1c[nH]c2ncccc12)C1CCCC1`, the figure is 3.16%; as for `Cc1cnn(-c2cccc(N3CCCC3)n2)c1`, -1.27%; as for `CCN(CC)C(=O)Cc1csc(C(C)C)n1`, 14%. With `CC(=O)N1CCC[C@H]1C(=O)N(C)CCCOc1ccccc1`, the cytotoxicity at 70.5 h was -2.16%. As to `O=C(Nc1ccccc1OC1CCOC1)c1[nH]nc2c1CCCC2` (stereo unspecified), the cytotoxicity at 70.5 h turned out to be 8.78%. Turning to `COc1ccc(F)cc1CSCC(=O)N(C)C1CC1`, the cytotoxicity at 70.5 h is -0.442%. Then `CCS(=O)(=O)c1ccc2c(c1)OCCO2`, with -0.357%; and `COc1ccc(C(=O)N(c2ccc(OC)c(F)c2)C(C)C)cn1`, with -2.91%; and `CC(c1nc(C2CC2)no1)N(C)Cc1cccc(F)c1` (stereo unspecified), with -2.41%. As for `O=C(NCc1cccnc1)N1CCSCC1CCO` (stereo unspecified), the cytotoxicity at 70.5 h is 13.2%.

As for `O=C(Nc1nncs1)c1ccc(-n2cnnn2)cc1`, the cytotoxicity at 70.5 h was determined as 1.5%. For `Cc1nn(C)c(Cl)c1CNCCOc1ccc2c(c1)OCO2`, the cytotoxicity at 70.5 h came out at 7.39%. `Cn1cnc2c1CCN(CC(=O)N(Cc1ccccc1F)C1CC1)C2`: the cytotoxicity at 70.5 h was -6.36%. As for `CC(C)c1nnc2n1CCN(C(=O)c1ccccc1OCC1CC1)C2`, the figure is -4.61%.

Take `COc1ccc2c(c1)C(=O)N(C)C1(CCN(CC3CC3)CC1)N2`: the cytotoxicity at 70.5 h was determined as 3.49%.

For `COCCS(=O)(=O)Nc1ccc(-n2nccc2C(F)(F)F)cc1`, the cytotoxicity at 70.5 h was found to be 18.2%. As to `Cc1cccc(C)c1OCC(=O)Nc1cccn(C)c1=O`, the cytotoxicity at 70.5 h is -4.44%. Then `COCCNC(=O)NCCc1cccc(OC)c1O`, with 0.934%; and `Cn1cnc2c1CCN(CC(=O)N(Cc1ccsc1)C1CC1)C2`, with 0.271%. Then `O=C(NCc1ccncc1)N1CCSCC1c1ccc(Cl)cc1` (stereo unspecified), with 3.04%. Take `N#Cc1cccnc1NCCC1CCN(CC(F)(F)F)CC1`: the cytotoxicity at 70.5 h was -5%. On to `CSc1ccc(NC(=O)NCC(O)C(C)C)cc1F` (stereo unspecified), for which the cytotoxicity at 70.5 h was 4.17%. As for `CSc1ccc(NC(=O)NCC(O)C2CC2)cc1F` (stereo unspecified), the figure is 7.73%; as for `Cn1cnn(CC(=O)NCc2ccccc2F)c1=O`, 20.6%; as for `Cn1cnn(Cc2ccccc2F)c1=O`, 2.33%.

Consider `O=C1C(Nc2ncccn2)CCN1c1ccccc1OC(F)F` (stereo unspecified), for which the cytotoxicity at 70.5 h is 1.42%.

As to `COc1ccccc1N1CCCC(Nc2ncccn2)C1=O` (stereo unspecified), the cytotoxicity at 70.5 h was -3.79%. Then `COc1cccc(CCNC(=O)NC(C)C)c1O`, with 9.97%; and `c1ccc(-c2nnc3ccc(N4CCC5(CCOC5)C4)nn23)cc1` (stereo unspecified), with 5.72%.

Take `CN(C)S(=O)(=O)Nc1ccc(-n2nncc2C(F)(F)F)cc1`: the cytotoxicity at 70.5 h is 3.32%. Consider `CC(C)c1cc(=O)[nH]c(C(C)(C)N)n1`, for which the cytotoxicity at 70.5 h was -3.05%. As for `N#Cc1cnc2ccccc2c1N1CCN(CCC(=O)O)CC1`, the figure is 1.24%.
